Measured values: US20250340519A1, “RADIOLABELLED COMPOUND” (OXFORD UNIVERSITY INNOVATION LIMITED, priority 2018, published 2025)

Experiments:
[1] = Dynamic PET blood clearance in naïve CBA/Carl mice; type: in vivo; conditions: i.v. 3 MBq
[2] = test system: U87MG and U251MG xenografts; experiment: 18F-olaparib biodistribution in U87MG and U251MG tumour xenograft mouse models; type: in vivo, Balb/c nude mice; conditions: both U87MG and U251MG tumours, 60-120 min p.i.
Procedure: U87MG and U251MG xenografts were generated in Balb/c nude mice. The xenograft models were administered various doses (0.5, 1.0, 4.0, and 8.0 μg) of ^18F-olaparib by tail vein injection. At 60-120 min post-injection, mice were sacrificed and organs were collected for biodistribution; see FIGS. 27(a) and (b), and FIG. 28(a). […] We predicted that the uptake for the U251MG xenografts would be greater, but in vivo there is no significant difference between the % ID/g for the U251MG or U87MG xenograft tumours.
A 20-fold excess of cold olaparib was injected via tail vein 60 m prior to 1 μg of ^18F-olaparib via tail vein. The mice were sacrificed at 60-120 min post-injection and organs were harvested.

[3] = test system: PANC-1 cells; experiment: Cell uptake of [18F]olaparib in PANC-1 cells; type: cell-based, human; conditions: radiation dose-dependent
Procedure: PARP1 levels in a limited selection of PDAC cell lines were determined using Western blot and confirmed by immunofluorescence microscopy. […] Uptake was reported as a percentage of the total amount added, per mg of total protein recovered from the isolated cells, determined by BCA assay. Specificity of uptake was determined by blocking olaparib binding sites using an excess of cold, unlabeled olaparib, or other PARP inhibitors (rucaparib, talazoparib).
Cell uptake of ^18F-olaparib in Panc-1, MiaPaCa-2 and Capan-1 cells was determined as previously described (Cornelissen, B., Hu, M., McLarty, K., Costantini, D. & Reilly, R. M.
Cellular penetration and nuclear importation properties of 111In-labeled and 123I-labeled HIV-1 tat peptide immunoconjugates in BT-474 human breast cancer cells. Nucl Med Biol 34, 37-46, 2007; Thurber, G. M., Reiner, T., Yang, K. S., Kohler, R. H. & Weissleder, R. Effect of small-molecule modification on single-cell pharmacokinetics of PARP inhibitors. Molecular cancer therapeutics 13, 986-995, 2014; Reiner, T., et al. Imaging therapeutic PARP inhibition in vivo through bioorthogonally developed companion imaging agents. Neoplasia 14, 169-177, 2012). Aliquots of Panc-1, MiaPaca-2, and Capan-1 cells (1.5×10^5 cells/well) were seeded in 24-well plates in warm cell culture medium (500 μL) and the cells were allowed to adhere overnight. Cells were irradiated (10 Gy; dose rate 0.8 Gy/min) or sham-irradiated and then returned to an incubator (37° C., 5% CO2) for 2 h. […] In the blocking groups, non-radioactive olaparib, talazoparib, or rucaparib were also added in increasing concentrations (10 pM-10 μM. After 30 or 60 minutes, the cell culture medium was removed and combined with two washes (500 μL) of cell culture medium. The remaining monolayer of cells was then lysed with 0.1 M sodium hydroxide for 20 minutes at room temperature. The amount of radioactivity contained within the cell culture medium and the cell lysate fractions was measured using a gamma counter. Protein levels from parallel plates were quantified using a Pierce BCA protein assay kit (Thermo Scientific) according to the manufacturer's recommendations and bovine serum albumin was used as the protein standard. Cell uptake levels of [^18F]-olaparib were normalised to percent of the total added radioactivity per milligram protein. […] IC50 values were calculated using GraphPad Prism software (GraphPad Software, San Diego, CA, USA). […]
Aliquots of Panc-1, MiaPaca-2, and Capan-1 cells (7.5×10^4 cells/well) were seeded in 24-well plates in warm cell culture medium (500 μL). […] The amount of radioactivity contained within the cell culture medium and the cell lysate fractions was measured using a gamma counter. […]

O=C(c1cc(Cc2n[nH]c(=O)c3ccccc23)ccc1[18F])N1CCN(C(=O)C2CC2)CC1 [[^18F]olaparib]
clearance pattern ([1]; dynamic PET): hepatobilliary
weighted blood half-life [1]: 19.3 min
blood clearance fast half-life ([1]; biphasic fit, fast phase (44%)): 2.8 min
blood clearance slow half-life ([1]; biphasic fit, slow phase (56%)): 32.3 min
decrease of tumour % ID/g at 8.0 μg compared to 1.0 μg tracer [2]: > 50%
[^18F]olaparib uptake after gamma-irradiation [3]: increased
